# Laboratory results published in patent US20090270401A1, “USE OF A DIHYDROIMIDAZOPYRAZOINE DERIVATIVE FOR TREATING OR PREVENTING PAIN” (Societe de Conseils de Recherches et D'Applications …, priority 2004, published 2009).
# What was measured:
# Assay type in all cases: in vivo
# [1] = test system: neuropathy induced by administration of an anti-cancer agent (paclitaxel (taxol)), on a rat's paw; experiment: Model of neuropathy induced by administration of an anti-cancer agent (paclitaxel), Randall-Selitto test; conditions: significantly increased
# Experimental: The activity of compound (I) or its salt according to the invention was evaluated in vivo on a model of neuropathy induced by administration of an anti-cancer agent (paclitaxel (taxol)), on a rat's paw.
# Male Sprague Dawley (Charles River) rats weighing approximately 200 g are housed for 6 days under animal room conditions. 3 groups are constituted by at least 10 animals.
# The neuropathy is induced by intra-peritoneal injections (i.p.) of 2 mg/kg of paclitaxel (extract of Taxus Yannanensis) on days D0, D2, D4 and D7.
# Before the first injection, the rats are numbered and weighed and nociception is evaluated after a mechanical stimulus of increasing pressure: induction of an initial pressure (210 g/m^2) on the rats' two rear paws carried out using an analgesy meter according to the Randall and Selitto method. These measurements allow the base values to be defined before development of the neuropathy (D0). […]
# On the day of the experiment, the rats are weighed, nociception is measured and the animals which have not developed the neuropathy on this day (reduction of nociception in comparison with the readings on D0) are excluded from the study. The product being tested is administered and nociception is measured at different times after its administration.
# [2] = test system: carrageenin-induced inflammatory hyperalgesia in a rat's paw; experiment: Model of carrageenin-induced inflammatory hyperalgesia (Randall-Selitto test)
# Experimental: The activity of compound (I) or its salt according to the invention has been evaluated in vivo on a model of carrageenin-induced inflammatory hyperalgesia in a rat's paw.
# Male Sprague Dawley (Charles River) rats weighing approximately 200 g are housed for 5 to 8 days under animal room conditions and fasted on grids for 18 hours before and during the experiment. 4 groups are constituted by at least 6 animals. The products are administered by intravenous route (i.v., 1 ml/kg) 2 hours 30 minutes after the injection of carrageenin. Carrageenin at a concentration of 2 mg/0.1 ml was injected by sub-plantar route in the right rear paw of the rats (0.1 ml was injected per animal). The pain threshold (or nociceptive threshold) was evaluated by measuring the withdrawal of the rat's paw caused by a mechanical stimulus of increasing pressure (initial pressure 210 g/mm^2) applied using an analgesy meter (Randall-Selitto test). The measurements were taken just before the injection of carrageenin (t=−2 hours 30 minutes) and then at time 0.5 hours, 2 hours 30 minutes and 4 hours after injection of the products to be tested, which was carried out at t=0.
# (§1) This effectiveness is statistically determined by a variance analysis test (one route) and/or a Dunnett's test (two routes).
# The effective dose (ED50) was determined. By ED50, is meant the dose which reduces by half the pain induced in the model tested.
# [3] = test system: neuropathy induced by chronic constriction injury on the rat's paw; experiment: Model of neuropathy induced by sciatic nerve lesion (chronic constriction injury), Randall-Selitto test
# Experimental: The activity of compound (I) or its salt according to the invention was evaluated in vivo on a model of neuropathy induced by chronic constriction injury on the rat's paw.
# Male Sprague Dawley (Charles River) rats weighing approximately 200 g are housed for 6 days under animal room conditions. Before the start of the experiment (day zero) the pain threshold (or nociceptive threshold) was evaluated by measuring the withdrawal of the rat's paw caused by a mechanical stimulus (initial pressure 210 g/mm^2) applied using an analgesy meter (Randall-Selitto test). This threshold is the pain base threshold. Then, also on day zero, the rats are rendered neuropathic by chronic constriction injury according to the Bennett and Xies (1988) method: 4 ligatures spaced at approximately 2 mm (monocryl suture; 5.0) are carried out on the sciatic nerve of the rat's right paw, above the trifurcation. This operation is carried out under general anaesthetic using isoflurane. […] On day 14 after the operation, the pain threshold was re-evaluated. […] The readings are taken at the following times: 0.5 hours 2.5 hours and 4 hours after injection of compound (I). […]
# as §1
# The effective dose (ED50) was determined. […]
# [4] = Rattus norvegicus, iv, at time 0.5 hours, read-out: ED50 (dose which reduces by half the pain induced)
smiles,measurement,setting,value
"N[C@@H](CSSC[C@H](N)C(=O)N1CCn2cc(-c3ccccc3)nc2[C@@H]1CC1CCCCC1)C(=O)N1CCn2cc(-c3ccccc3)nc2[C@@H]1CC1CCCCC1 [Compound (I), (1R)-1-[({(2R)-2-amino-3-[(8S)-8-(cyclohexylmethyl)-2-phenyl-5,6-dihydroimidazo[1,2-a]pyrazin-7(8H)-yl]-3-oxopropyl}dithio)methyl]-2-[(8S)-8-(cyclohexylmethyl)-2-phenyl-5,6-dihydroimidazo[1,2-a]pyrazin-7(8H)-yl]-2-oxoethylamine]",pain threshold following a mechanical stimulus applied on the rats' paws,"[1]; 3 mg/kg i.v., time 0.5 hours, paclitaxel alone 250 g/mm^2",approximately 370 g/mm^2
same,pain threshold following a mechanical stimulus applied to the rats' paws,"[1]; 100 mg/kg p.o., time 1 hour, paclitaxel alone 240 g/mm^2",approximately 400 g/mm^2
same,pain threshold following a mechanical stimulus applied to the rats' paws,"[2]; 1 mg/kg i.v., time 0.5 hours, control 240 g/mm^2, significantly increased",approximately 400 g/mm^2
same,ED50,[2]; [4],0.42 mg/kg
same,pain threshold following a mechanical stimulus applied to the rats' paws,"[3]; 3 mg/kg i.v., time 0.5 hours, day 14 after operation, control 200 g/mm^2, significantly increased",approximately 320 g/mm^2
same,ED50,[3]; [4],2.5 mg/kg
